Source: paper PMC6222718, “Ethylenediamine Derived Carboxamides of Betulinic and Ursolic Acid as Potential Cytotoxic Agents” (Molecules : A Journal of Synthetic Chemistry and Natural …, 2018)
Entries after “also recorded” stand apart in the source; their conditions may differ.

Experiments:
518A2 (melanoma) = assay: SRB cytotoxicity assay, 518A2; format: cell-based, human; details: for EC50: Homo sapiens, SRB assay, 96 h of treatment, 518A2; for Selectivity index (SI) 518A2: SI = EC50 (NIH 3T3)/EC50 (518A2)
In short: (§1)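 Cells grown in RPMI 1640/10% FBS, treated 24 h after seeding with at least six concentrations (1–30 µM; DMSO/DMF ≤0.5%) for 96 h, then TCA-fixed, SRB-stained and read at 570 nm. EC50 from 4-parameter Hill fits (top 100, bottom 0), mean of three independent triplicate experiments.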

[1] = test system: A2780 (ovarian carcinoma); assay: SRB cytotoxicity assay, A2780; format: cell-based, human; details: for factor by which activity is reduced compared to doxorubicin hydrochloride (DRC): A2780 tumor cells, EC50 versus DRC; for EC50: Homo sapiens, SRB assay, 96 h of treatment, A2780; for Selectivity index (SI) A2780: SI = EC50 (NIH 3T3)/EC50 (A2780)
In short: as §1

[2] = test system: HT29 (colon adenocarcinoma); assay: SRB cytotoxicity assay, HT29; format: cell-based, human; details: for EC50: Homo sapiens, HT-29, SRB assay, 96 h of treatment, HT29; for Selectivity index (SI) HT29: SI = EC50 (NIH 3T3)/EC50 (HT29)
In short: as §1

[3] = test system: MCF-7 (breast adenocarcinoma); assay: SRB cytotoxicity assay, MCF-7; format: cell-based, human; details: for EC50: Homo sapiens, MCF7, SRB assay, 96 h of treatment, MCF-7; for Selectivity index (SI) MCF-7: SI = EC50 (NIH 3T3)/EC50 (MCF-7)
In short: as §1

[4] = test system: 8505C (thyroid carcinoma); assay: SRB cytotoxicity assay, 8505C; format: cell-based, human; details: for EC50: Homo sapiens, SRB assay, 96 h of treatment, 8505C; for Selectivity index (SI) 8505C: SI = EC50 (NIH 3T3)/EC50 (8505C)
In short: as §1

[5] = test system: non-malignant mouse fibroblasts NIH 3T3; assay: SRB cytotoxicity assay, NIH 3T3; format: cell-based; details: NIH3T3, 96 h of treatment
In short: as §1

[6] = test system: several human tumor cell lines; assay: SRB cytotoxicity assay, cell line panel (summary statements); format: cell-based; details: for EC50: Homo sapiens, summary over the cell lines tested; for SI factors (over the cancerous cell lines): SI = EC50 (NIH 3T3)/EC50 (tumor cell line), summary
Description: The cytotoxicity of ursolic and betulinic carboxamides 3–30 was determined in sulforhodamine B (SRB) assays.
The cell lines used were human cancer cell lines: 518A2 (melanoma), A2780 (ovarian carcinoma), HT29 (colon adenocarcinoma), MCF-7 (breast adenocarcinoma), 8505C (thyroid carcinoma) and non-malignant mouse fibroblasts NIH 3T3. Cultures were maintained as monolayers in RPMI 1640 medium with L-glutamine (Capricorn Scientific GmbH, Ebsdorfergrund, Germany) supplemented with 10% heat inactivated fetal bovineserum (Sigma-Aldrich Chemie GmbH, Steinheim, Germany) and penicillin/streptomycin (Capricorn Scientific GmbH, Ebsdorfergrund, Germany) at 37 °C in a humidified atmosphere with 5% CO2.
The cytotoxicity of the compounds was evaluated using the sulforhodamine-B (Kiton-Red S, ABCR) micro culture colorimetric assay. Cells were seeded into 96-well plates on day 0 at appropriate cell densities to prevent confluence of the cells during the period of experiment. After 24 h, the cells were treated with 6 different concentrations (1, 3, 7, 12, 20 and 30 µM) minimum. The final concentration of DMSO/DMF never exceeded 0.5%, which was non-toxic to the cells. After a 96 h treatment, the supernatant medium from the 96-well plates was discarded, the cells were fixed with 10% trichloroacetic acid (TCA) and allowed to rest at 4 °C. After 24 h fixation, the cells were washed in a strip washer and dyed with SRB solution (100 µL, 0.4% in 1% acetic acid) for about 20 min. After dying, the plates were washed four times with 1% acetic acid to remove the excess of the dye and allowed to air-dry overnight. Tris base solution (200 µL, 10 mM) was added to each well and absorbance was measured at λ = 570 nm using a 96-well plate reader (Tecan Spectra, Crailsheim, Germany). The EC50 values were averaged from three independent experiments performed each in triplicate calculated from semi logarithmic dose response curves applying a non-linear 4P Hills-slope equation (GraphPad Prism5; variables top and bottom were set to 100 and 0, respectively).

MCF-7 cells = assay: AO/PI dye exclusion test, MCF-7; format: cell-based, human; details: 24 h
Description: (§2) Extended biological investigations were performed for compounds 25 and 26 using dye exclusion acridine orange (AO)/propidium iodide (PI) assays by treating MCF-7 or A2780 tumor cells with 25 and 26, respectively for 24 h (Figure 3). […] For both compounds, membrane blebbing of some cells could also be observed. These observations can be regarded as indications of apoptosis.
(§3) Morphological characteristics of cell death were analyzed employing an AO/PI assay using human cancer cell lines A2780 and MCF-7. Approximately 8 × 10^5 cells were seeded in cell culture flasks (25 cm^2), and the cells were allowed to grow for 24 h. After removing the used medium, fresh medium was reloaded (or a blank new medium was used as a control). After 24 h, the content of the flask was collected and centrifuged (1200 rpm, 4 °C), and the pellet was gently suspended in phosphate-buffered saline (PBS (w/w), 1 mL) and centrifuged again. The PBS was removed, and the pellet gently suspended in PBS (50 µL) again. The analysis of the cells was performed using a fluorescence microscope after having mixed the cell suspension (10 µL) with a solution of AO/PI (1 µg/mL, 10 µL).

A2780 cells = assay: AO/PI dye exclusion test, A2780; format: cell-based, human; details: 1 µM, 24 h
Description: as §2, §3

C=C(C)C1CC[C@]2(C(=O)NCCN(C)C)CC[C@]3(C)C(CCC4[C@@]5(C)CC[C@H](O)C(C)(C)C5CC[C@]43C)C12 (stereo partly drawn) [Compound 25, (3β)-N-[2-(Dimethylamino)ethyl]-3-hydroxy-lup-20(29)-en-28-amide]
EC50 (518A2 (melanoma)): 300 ± 160 nM | Selectivity index (SI) 518A2 (518A2 (melanoma)): 1.00 | factor by which activity is reduced compared to doxorubicin hydrochloride (DRC) [1]: 20 | EC50 [1]: 200 ± 10 nM | Selectivity index (SI) A2780 [1]: 1.50 | EC50 [2]: 300 ± 50 nM | Selectivity index (SI) HT29 [2]: 1.00 | EC50 [3]: 300 ± 70 nM | Selectivity index (SI) MCF-7 [3]: 1.00 | EC50 [4]: 400 ± 40 nM | Selectivity index (SI) 8505C [4]: 0.75 | EC50 [5]: 300 ± 90 nM | EC50 [6]: < 1000 nM | SI factors (over the cancerous cell lines) [6]: ~1 | AO/PI fluorescence microscopy, cell morphology (MCF-7 cells; 1 µM): both apoptotic (membrane blebbing, marked by white arrows in Figure 3) and necrotic cells (red staining) | AO/PI fluorescence microscopy, cell morphology (A2780 cells): both green colored cells as well as late-stage apoptotic cells

C=C(C)C1CC[C@]2(C(=O)NCCN3CCCC3)CC[C@]3(C)C(CCC4[C@@]5(C)CC[C@H](O)C(C)(C)C5CC[C@]43C)C12 (stereo partly drawn) [Compound 26, (3β)-N-(2-Pyrrolidin-1-ylethyl)-3-hydroxy-lup-20(29)-en-28-amide]
EC50 (518A2 (melanoma)): 400 ± 60 nM | Selectivity index (SI) 518A2 (518A2 (melanoma)): 1.00 | factor by which activity is reduced compared to doxorubicin hydrochloride (DRC) [1]: 30 | EC50 [1]: 300 ± 100 nM | Selectivity index (SI) A2780 [1]: 1.33 | EC50 [2]: 400 ± 20 nM | Selectivity index (SI) HT29 [2]: 1.00 | EC50 [3]: 200 ± 50 nM | Selectivity index (SI) MCF-7 [3]: 2.00 | EC50 [4]: 500 ± 60 nM | Selectivity index (SI) 8505C [4]: 0.80 | EC50 [5]: 400 ± 20 nM | EC50 [6]: < 1000 nM | SI factors (over the cancerous cell lines) [6]: ~1 | AO/PI fluorescence microscopy, cell morphology (MCF-7 cells; 0.75 µM): intact cell membranes (green staining); also recorded: protrusions in the plasma membrane (blebbing) of some cells | AO/PI fluorescence microscopy, cell morphology (A2780 cells): both green colored cells as well as late-stage apoptotic cells
